Laboratory results as given in paper PMC12340637, “Transport of Small Aliphatic Amines by Polyspecific Solute Carriers: Deciphering Structure–Function Relationships” (ACS Pharmacology & Translational Science, 2025).
Marks after values point to notes of the source that are not given here.

Columns and labels:
[1] = target: T1, OCT2 (SLC22A2) (Homo sapiens, UniProt O15244); assay: in vitro; conditions: pH 7.4
T1 sequence (O15244 1-555): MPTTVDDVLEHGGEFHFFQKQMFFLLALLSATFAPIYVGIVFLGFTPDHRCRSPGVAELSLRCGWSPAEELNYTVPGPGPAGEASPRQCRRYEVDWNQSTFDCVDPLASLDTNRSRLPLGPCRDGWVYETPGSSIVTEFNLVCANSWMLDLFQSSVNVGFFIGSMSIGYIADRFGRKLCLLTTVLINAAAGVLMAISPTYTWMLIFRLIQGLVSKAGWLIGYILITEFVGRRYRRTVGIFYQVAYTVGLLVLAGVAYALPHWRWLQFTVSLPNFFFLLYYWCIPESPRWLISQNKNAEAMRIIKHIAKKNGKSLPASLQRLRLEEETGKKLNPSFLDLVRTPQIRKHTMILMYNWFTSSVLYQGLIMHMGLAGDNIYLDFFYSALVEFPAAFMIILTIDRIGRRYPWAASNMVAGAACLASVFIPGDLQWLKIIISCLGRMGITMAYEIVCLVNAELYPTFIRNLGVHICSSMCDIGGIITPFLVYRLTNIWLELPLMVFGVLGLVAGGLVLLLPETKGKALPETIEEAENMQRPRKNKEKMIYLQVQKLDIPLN

[2] = target: T1, OCT2 (SLC22A2); assay: Cellular uptake into OCT2-overexpressing HEK293 cells vs EV control cells (HPLC-MS/MS); conditions: for uptake ratio OCT2 (transporter-overexpressing cells over EV control cells): mean (±SD, N): 2 min, HEK293; for v max (±SEM) / K m (±SEM): OCT2, net uptake, Michaelis–Menten
[3] = target: MATE2-K (SLC47A2) (Homo sapiens, UniProt Q86VL8); assay: Cellular uptake into MATE2-K-overexpressing HEK293 cells vs EV control cells (HPLC-MS/MS); conditions: for uptake ratio MATE2K (transporter-overexpressing cells over EV control cells): mean (±SD, N): 2.5 μM substrate, 1 min, 30 mM NH4Cl preincubation, HEK293
[4] = target: T2, MATE1 (SLC47A1) (Homo sapiens, UniProt Q96FL8); assay: Cellular uptake into MATE1-overexpressing HEK293 cells vs EV control cells (HPLC-MS/MS); conditions: for uptake ratio MATE1 (transporter-overexpressing cells over EV control cells): mean (±SD, N): 2.5 μM substrate, 1 min, 30 mM NH4Cl preincubation, HEK293
T2 sequence (Q96FL8 1-570): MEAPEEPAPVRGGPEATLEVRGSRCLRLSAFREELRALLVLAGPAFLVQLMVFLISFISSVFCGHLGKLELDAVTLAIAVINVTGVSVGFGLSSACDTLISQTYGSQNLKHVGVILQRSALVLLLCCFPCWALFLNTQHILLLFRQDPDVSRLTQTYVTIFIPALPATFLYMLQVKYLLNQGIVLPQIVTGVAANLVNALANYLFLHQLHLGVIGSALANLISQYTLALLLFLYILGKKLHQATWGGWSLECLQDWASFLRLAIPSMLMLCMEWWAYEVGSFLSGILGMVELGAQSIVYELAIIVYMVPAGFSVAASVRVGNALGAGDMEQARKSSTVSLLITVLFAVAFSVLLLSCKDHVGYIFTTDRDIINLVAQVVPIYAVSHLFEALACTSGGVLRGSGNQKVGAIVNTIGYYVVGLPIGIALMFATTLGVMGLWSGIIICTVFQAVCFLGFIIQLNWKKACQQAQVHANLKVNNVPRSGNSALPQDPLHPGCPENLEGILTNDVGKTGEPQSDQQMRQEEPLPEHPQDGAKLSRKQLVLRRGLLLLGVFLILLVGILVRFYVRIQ

[5] = target: T3, OCT1 (SLC22A1) (Homo sapiens, UniProt O15245); assay: Cellular uptake into OCT1-overexpressing HEK293 cells vs EV control cells (HPLC-MS/MS); conditions: for uptake ratio OCT1 (transporter-overexpressing cells over EV control cells): mean (±SD, N): 2 min, HEK293
T3 sequence (O15245 1-554): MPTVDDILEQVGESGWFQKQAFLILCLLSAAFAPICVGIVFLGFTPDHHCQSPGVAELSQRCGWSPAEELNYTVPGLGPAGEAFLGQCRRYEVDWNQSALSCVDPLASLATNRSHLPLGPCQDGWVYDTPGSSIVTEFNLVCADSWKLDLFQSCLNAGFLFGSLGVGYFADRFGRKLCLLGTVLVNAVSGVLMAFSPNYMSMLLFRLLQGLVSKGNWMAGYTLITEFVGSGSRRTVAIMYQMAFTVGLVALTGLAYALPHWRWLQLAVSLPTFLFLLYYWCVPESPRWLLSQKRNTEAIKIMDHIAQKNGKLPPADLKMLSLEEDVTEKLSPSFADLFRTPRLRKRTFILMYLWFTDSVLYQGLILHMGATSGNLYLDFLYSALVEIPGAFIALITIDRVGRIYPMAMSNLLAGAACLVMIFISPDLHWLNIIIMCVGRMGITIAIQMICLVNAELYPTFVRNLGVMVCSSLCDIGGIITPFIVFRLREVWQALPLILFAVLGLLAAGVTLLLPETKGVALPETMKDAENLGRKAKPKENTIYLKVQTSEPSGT

[6] = target: T4, OCT3 (SLC22A3) (Homo sapiens, UniProt O75751); assay: Cellular uptake into OCT3-overexpressing HEK293 cells vs EV control cells (HPLC-MS/MS); conditions: for uptake ratio OCT3 (transporter-overexpressing cells over EV control cells): mean (±SD, N): 2 min, HEK293
T4 sequence (O75751 1-556): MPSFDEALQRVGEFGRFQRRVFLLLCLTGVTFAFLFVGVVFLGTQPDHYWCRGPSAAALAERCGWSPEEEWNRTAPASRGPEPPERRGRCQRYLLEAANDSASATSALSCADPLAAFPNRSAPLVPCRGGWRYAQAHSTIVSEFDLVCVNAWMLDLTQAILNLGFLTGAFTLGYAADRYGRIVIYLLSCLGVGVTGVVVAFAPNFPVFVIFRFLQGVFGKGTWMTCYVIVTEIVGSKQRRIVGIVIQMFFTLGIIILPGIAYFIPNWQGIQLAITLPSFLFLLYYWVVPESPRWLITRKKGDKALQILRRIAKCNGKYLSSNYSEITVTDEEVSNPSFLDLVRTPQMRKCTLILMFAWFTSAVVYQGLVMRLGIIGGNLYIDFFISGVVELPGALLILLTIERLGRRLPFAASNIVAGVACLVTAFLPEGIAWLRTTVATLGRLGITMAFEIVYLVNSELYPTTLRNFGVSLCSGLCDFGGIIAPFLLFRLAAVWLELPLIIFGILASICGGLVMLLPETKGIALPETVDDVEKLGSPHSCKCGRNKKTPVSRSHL

[7] = uptake ratio ≥2 = notable transport
[8] = MATE1, net uptake, Michaelis–Menten
[9] = OCT1, net uptake, Michaelis–Menten

Chain of MATE2-K (SLC47A2) (Q86VL8 1-566 isoform Q86VL8-3): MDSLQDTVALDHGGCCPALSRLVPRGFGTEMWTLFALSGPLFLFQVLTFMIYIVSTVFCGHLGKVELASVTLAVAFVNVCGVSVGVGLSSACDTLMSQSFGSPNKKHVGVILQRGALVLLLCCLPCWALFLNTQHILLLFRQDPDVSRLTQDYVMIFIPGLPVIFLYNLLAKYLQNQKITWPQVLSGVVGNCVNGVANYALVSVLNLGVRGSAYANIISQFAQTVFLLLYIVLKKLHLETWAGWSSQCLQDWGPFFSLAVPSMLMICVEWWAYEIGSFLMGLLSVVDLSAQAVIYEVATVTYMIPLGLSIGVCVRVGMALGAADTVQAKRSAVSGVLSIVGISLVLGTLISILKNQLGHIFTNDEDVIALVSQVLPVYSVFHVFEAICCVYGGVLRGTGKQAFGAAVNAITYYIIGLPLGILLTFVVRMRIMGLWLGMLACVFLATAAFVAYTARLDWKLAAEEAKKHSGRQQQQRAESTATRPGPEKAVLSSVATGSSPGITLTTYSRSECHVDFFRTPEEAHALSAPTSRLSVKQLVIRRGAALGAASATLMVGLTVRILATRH

uptake ratio OCT2 (transporter-overexpressing cells over EV control cells): mean (±SD, N) ([2]; 10 μM substrate)	uptake ratio MATE2K (transporter-overexpressing cells over EV control cells): mean (±SD, N) [3]	uptake ratio MATE1 (transporter-overexpressing cells over EV control cells): mean (±SD, N) [4]	uptake ratio OCT1 (transporter-overexpressing cells over EV control cells): mean (±SD, N) ([5]; 10 μM substrate)	uptake ratio OCT3 (transporter-overexpressing cells over EV control cells): mean (±SD, N) ([6]; 10 μM substrate)	v max (±SEM) [2]	K m (±SEM) [2]	Compound	also measured
5.0 (1.3, 4) ^b	1.1 (0.2, 3)	0.8 (0.2, 3)	1.2 (0.1, 4)	0.8 (0.3, 4)	1053 (±206) pmol/mg protein/min	–	CCN(CC)CC [triethylamine]	–
1.6 (0.4, 4)	1.2 (0.6, 5)	0.8 (0.2, 4)	1.8 (1.4, 5)	0.6 (0.2, 4) ^a	–	–	CCCCCCN [hexylamine]	–
–	1.0 (0.2, 3)	6.6 (1.3, 3) ^a	–	–	9730 (±1210) pmol/mg protein/min	1089 (±213) μM	CC(N)CCCC(C)(C)O (stereo not drawn) [heptaminol]	uptake ratio OCT2 (transporter-overexpressing cells over EV control cells): mean (±SD, N) ([2]; 2.5 μM substrate (§)): 8.7 (5.0, 3); K m (±SEM) [4, 8]: 154 (±18) μM; v max (±SEM) [4, 8]: 8061 (±283) pmol/mg protein/min; CLint of MATE1 higher than that of OCT1 ([4]; MATE1 vs OCT1): 6.0 fold; CLint of MATE1 higher than that of OCT2 ([4]; MATE1 vs OCT2): 3.7 fold; uptake ratio OCT1 (transporter-overexpressing cells over EV control cells): mean (±SD, N) ([5]; 2.5 μM substrate (§)): 11.3 (4.6, 3); K m (±SEM) [5, 9]: 241 (±68) μM; v max (±SEM) [5, 9]: 1480 (±174) pmol/mg protein/min; uptake ratio OCT3 (transporter-overexpressing cells over EV control cells): mean (±SD, N) ([6]; 2.5 μM substrate (§)): 1.1 (0.29, 4)
–	1.0 (0.1, 3)	0.9 (0.2, 3)	–	–	–	–	CCC(C)(C)N [tert-amylamine]	uptake ratio OCT2 (transporter-overexpressing cells over EV control cells): mean (±SD, N) ([2]; 2.5 μM substrate (§)): 4.7 (2.1, 3); uptake ratio OCT1 (transporter-overexpressing cells over EV control cells): mean (±SD, N) ([5]; 2.5 μM substrate (§)): 1.0 (0.3, 3); uptake ratio OCT3 (transporter-overexpressing cells over EV control cells): mean (±SD, N) ([6]; 2.5 μM substrate (§)): 0.8 (0.1, 3)

The next lines start with the molecule.

Compound	uptake ratio OCT2 (transporter-overexpressing cells over EV control cells): mean (±SD, N) ([2]; 10 μM substrate)	uptake ratio MATE2K (transporter-overexpressing cells over EV control cells): mean (±SD, N) [3]	uptake ratio MATE1 (transporter-overexpressing cells over EV control cells): mean (±SD, N) [4]	uptake ratio OCT1 (transporter-overexpressing cells over EV control cells): mean (±SD, N) ([5]; 10 μM substrate)	uptake ratio OCT3 (transporter-overexpressing cells over EV control cells): mean (±SD, N) ([6]; 10 μM substrate)	v max (±SEM) [2]	K m (±SEM) [2]	also measured
CC(C)C[C@H](N)CO [(S)-(+)-leucinol]	–	–	–	–	–	–	–	selectivity ratio at 2 min [1]: 1.2
CC(N)CN(CC(C)N)CC(C)N (stereo not drawn) [tris(2-aminopropyl)amine]	- ^d	- ^d	- ^d	- ^d	- ^d	–	–	substrate activity at OCT2 (in words) [2, 7]: did not show any substrate activity; substrate activity at MATE2-K (in words) [3, 7]: did not show any substrate activity; substrate activity at MATE1 (in words) [4, 7]: did not show any substrate activity; substrate activity at OCT1 (in words) [5, 7]: did not show any substrate activity; substrate activity at OCT3 (in words) [6, 7]: did not show any substrate activity
NCCO [ethanolamine^13C2, ethanolamine-^13C2]	0.4 (0.2, 4) ^b	1.2 (0.4, 4)	1.2 (0.4, 4)	0.6 (0.3, 4)	1.4 (0.5, 4)	–	–	less uptake in OCT2-transfected cells compared to EV control cells ([2]; 10 μM, p = 0.009): 64%; uptake in OCT2-overexpressing cells as part of the uptake observed in EV control cells ([2]; discussion): two-thirds; lower uptake in OCT1-transfected cells compared to EV control cells ([5]; 10 μM): 38%; uptake in OCT1-overexpressing cells as part of the uptake observed in EV control cells ([5]; discussion): approximately one-third
CNCCCO [3-methylamino-1-propanol]	2.6 (1.0, 4) ^a	1.1 (0.4, 4)	0.8 (0.2, 4)	1.2 (0.2, 3)	1.0 (0.2, 3)	–	–	–
CCCC[C@H](N)CO [(S)-(+)-2-amino-1-hexanol]	–	–	–	–	–	786 (±72) ^b pmol/mg protein/min	39 (±12) μM	selectivity ratio at 2 min [1]: 1.3; stereoselectivity OCT3 (uptake ratio of the more strongly transported enantiomer divided by that of the other) ([6]; label = favoured enantiomer): 1.3-fold for (S)
NCCCCO [4-amino-1-butanol]	–	0.9 (0.3, 3)	1.0 (0.01, 3)	–	–	3103 (±1458) pmol/mg protein/min	1243 (±938) μM	uptake ratio OCT2 (transporter-overexpressing cells over EV control cells): mean (±SD, N) ([2]; 2.5 μM substrate (§)): 5.4 (1.1, 3) ^a; uptake ratio OCT1 (transporter-overexpressing cells over EV control cells): mean (±SD, N) ([5]; 2.5 μM substrate (§)): 1.1 (0.3, 3); uptake ratio OCT3 (transporter-overexpressing cells over EV control cells): mean (±SD, N) ([6]; 2.5 μM substrate (§)): 1.1 (0.3, 3)
NCC(O)CN [1,3-diamino-2-propanol]	3.7 (2.4, 3)	0.8 (0.1, 3)	1.1 (0.1, 3)	1.4 (0.6, 5)	1.6 (0.3, 3)	110 (±56) pmol/mg protein/min	65 (±91) μM	–
